Measurements as given in publication PMC7791840, “The R-enantiomer of ketorolac reduces ovarian cancer tumor burden in vivo” (BMC Cancer, 2021).
Entries after “also recorded” stand apart in the source; their conditions may differ. Counter-ions that a name gives are not always drawn.

What was measured:
SKOV3ip-GFP cells [1] = experiment: Measurement of omental weight; format: in vivo, mice; conditions: two-week tumor study, 1 mg/kg twice daily; no significant differences between groups
Text: page 1: SUPPLEMENTAL METHODS Cell Culture and Reagents SKOV3ip cells were modified to express GFP-Rac1 by transfection with pcDNA3-EGFP-Rac1- wt (Catalog # 12980, Addgene) as described for SKOV3ip-GFP cells under Methods. Rac1 overexpression quantification and verification was completed by western blot and qPCR. SKOV3ip-GFP and SKOV3ip-GFP-Rac1 cell populations were further enriched by flow sorting for GFP positive cells. SKOV3ip-GFP-Rac1 cell lines were maintained under the same selection as described for SKOV3ip-GFP cells (Methods). In vivo Drug Dosing Racemic (R-/S-) ketorolac tromethamine salt was purchased from Sigma (St. Louis MO, cat# K1136), S-ketorolac was purchased from Toronto Research Chemicals (Toronto Canada, cat# K235602) and dissolved in water or 100% ethanol, respectively . Mice received twice daily […] mg/kg of body weight. Measurement of Omental Weight Omental tissue was harvested and stored on ice in PBS for no more than 1 hour before analysis. Omenta were blotted dry on lab tissue and weight was measured using an analytical balance (Denver Instruments Company, A -160). There was a non-significant decreasing trend in omental weight for treated mice when compared to placebo mice ( Additional File 3: Table S1). […] Ketorolac was detected using a UV spectrometer set at UV310. […]

Rac1 = biological target: T1, Rac1 (Homo sapiens, UniProt P63000); experiment: Flow cytometric GTPase effector binding assay in tumor lysates (Rac1); format: in vivo; conditions: oral 1 mg/kg twice daily, 2 weeks; vs placebo
T1 construct: Frozen tumor samples were lysed without thawing; from tissue; host or cells: peritoneal SKOV3ip-GFP xenograft tumours from treated mice
Protocol: (§1) GTPase effector binding assays were carried out according to the protocols described previously. Frozen tumor samples were lysed without thawing with the addition of RIPA lysis buffer with the following modifications (no β-glycerphosphate,1 mM NaF and protease, 1% (v/v) NP-40 (nonyl phenoxypolyethoxylethanol) inhibitors consisting 10 μg/ml each of chymostatin, leupeptin, pepstatin and antipain). Protein concentrations were determined using GLISA quick protein concentration kit and lysates were adjusted to uniform protein concentrations of 0.5 mg/ml. Insoluble debris was removed by centrifugation at 14,000 RPM in a cold microfuge and the supernatants were incubated with GTPase effector coated beads (PAK1-PBD for Cdc42 and Rac1) for 1 h at 4 °C with rotation. Primary antibodies directed against Cdc42 or Rac1 and secondary antibody Alexa 488 were incubated with the beads for 1 h. Fluorescence intensity MCF (mean channel fluorescence) was used to measure the amount of active intracellular GTPase. MCF was measured by flow cytometry (Accuri C6, BD Biosciences). GTPase activity was calculated as (MCFsample group – MCFunstimulated negative control) / MCFstimulated positive control.

Cdc42 = biological target: T2, Cdc42 (Homo sapiens, UniProt P60953); experiment: Flow cytometric GTPase effector binding assay in tumor lysates (Cdc42); format: in vivo; conditions: oral 1 mg/kg twice daily, 2 weeks; vs placebo
T2 construct: Frozen tumor samples were lysed without thawing; from tissue; host or cells: peritoneal SKOV3ip-GFP xenograft tumours from treated mice
Protocol: as §1

SKOV3ip-GFP cells [2] = experiment: Two-week intraperitoneal tumor growth model (tumor burden); format: in vivo, mice; conditions: 1 mg/kg twice daily oral, 14 days, vs placebo
Text: For two-week tumor studies, 1 × 10^6 non-treated SKOV3ip-GFP cells were i.p. injected. All mice started R-ketorolac treatment one day prior to cell injection and continued treatment until conclusion of the study 14 days later. Mice were imaged using a Light Tools imaging system (Synopsys Optical Solutions, Westminster CO) with long pass GFP filters. Three images per mouse were captured to ensure all tumors were counted. Green fluorescent tumors were identified and counted in the peritoneal cavity as single tumors if there was a distinct border of non-fluorescent tissue. Tumor burden of the omentum occurred either as one large tumor or a bundle of tumors and was not included in the final analysis of tumor number. Total tumor counts from the peritoneal cavity were normalized to placebo treated animals within individual experiments. Blood was collected via cardiac puncture and ketorolac enantiomer concentrations were measured by HPLC analysis as described in Supplemental Methods (Additional File 1: Supplemental Methods). […]

T2 sequence (P60953 whole entry): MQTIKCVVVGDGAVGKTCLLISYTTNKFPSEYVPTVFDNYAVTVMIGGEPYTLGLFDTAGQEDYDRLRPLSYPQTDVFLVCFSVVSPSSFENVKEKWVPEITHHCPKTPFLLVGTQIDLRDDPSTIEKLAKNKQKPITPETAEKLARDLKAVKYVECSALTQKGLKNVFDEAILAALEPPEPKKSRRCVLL

SMILES | Omental weight, Mean ± SD (SKOV3ip-GFP cells [1]) [g] | Rac1 GTPase activity in tumor lysates (Rac1) | Cdc42 GTPase activity in tumor lysates (Cdc42) | Tumor burden (tumor implants within the peritoneal cavity) (SKOV3ip-GFP cells [2]) | Tumor burden (tumor implants within the peritoneal cavity) (SKOV3ip-GFP cells [2]; listed as Racemic drug)
O=C(c1ccccc1)c1ccc2n1CC[C@H]2C(=O)O [R-ketorolac] | 0.059 ± 0.018 | significantly decreased | significantly decreased | significantly fewer tumor implants; also recorded: significantly decreased tumor burden | 
O=C(c1ccccc1)c1ccc2n1CCC2C(=O)O (centres unmarked) [R−/S-ketorolac, ketorolac tromethamine salt] | 0.058 ± 0.026 | Inhibition of the target GTPases was evident | Inhibition of the target GTPases was evident |  | significantly decreased tumor burden
